We go through 57 compounds from US5849736A, “Isoxazoline and isoxazole fibrinogen receptor antagonists” (The DuPont Merck Pharmaceutical Company, priority 1995, dated 1998).

Counter-ions that a name gives are not always drawn.

In the first assay the test system is platelet aggregation in human platelet rich plasma (PRP). In words: Platelet Aggregation Assay (platelet rich plasma, with or without esterase pretreatment). Format: cell-based. Conditions: Platelet, preincubated with 100 IU/mL porcine liver esterase 2 hours at 37° C., 100 μM ADP, read-out: Platelet Aggregation Assay IC50 (with esterase). The procedure, abridged:
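Human citrated PRP from drug-free donors, PPP as 100% transmittance blank; compounds added at various concentrations before agonist (ADP, collagen, arachidonate, epinephrine or thrombin), aggregation followed by light transmittance. Ester prodrugs pretreated (10^-3 M F.C.) with 100 IU/mL porcine liver esterase, 2 h 37 °C; 8 min 37 °C preincubation, then 100 μM ADP, 5 min; % inhibition vs control, IC50.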
As to `Cc1ccccc1C(=O)N[C@@H](CNC(=O)CC1CC(c2ccc(C(=N)N)cc2)=NO1)C(=O)O` (stereo partly drawn) [Example 540, N^2-methylphenylcarbonyl-N^3-[3-(4-amidinophenyl)isoxazolin-5-(R,S)-ylacetyl]-(S)-2,3-diaminopropionicacid], the IC50 (commonly the concentration at which inhibition is half-maximal) is under 10 µM.
With `COC(=O)C(CNC(=O)CC1CC(c2ccc(C(=N)N)cc2)=NO1)NS(=O)(=O)c1cc(C)c(Cl)cc1C` (stereo not drawn) [Example 541], the IC50 is under 10 µM.
For the compound `COC(=O)C(CNC(=O)CC1CC(c2ccc(C(=N)N)cc2)=NO1)NS(=O)(=O)c1cccc(Cl)c1Cl` (stereo not drawn) [Example 542], the concentration for half-maximal inhibition (IC50) was under 10 µM.
Consider `COC(=O)C(CNC(=O)CC1CC(c2ccc(C(=N)N)cc2)=NO1)NS(=O)(=O)c1ccccc1Br` (stereo not drawn) [Example 543], for which the concentration for half-maximal inhibition (IC50) was under 10 µM.
The same measure, in the same setting: under `COC(=O)C(CNC(=O)CC1CC(c2ccc(C(=N)N)cc2)=NO1)NS(=O)(=O)c1cccc(Br)c1` (stereo not drawn) [Example 544] stands under 10 µM; under `COC(=O)C(CNC(=O)CC1CC(c2ccc(C(=N)N)cc2)=NO1)NS(=O)(=O)c1ccc(Br)cc1` (stereo not drawn) [Example 545], under 10 µM; under `COC(=O)C(CNC(=O)CC1CC(c2ccc(C(=N)N)cc2)=NO1)NS(=O)(=O)c1ccc(-c2ccccc2)cc1` (stereo not drawn) [Example 546], under 10 µM.
`COC(=O)C(CNC(=O)CC1CC(c2ccc(C(=N)N)cc2)=NO1)NS(=O)(=O)c1c(C)nn(C)c1Cl` (stereo not drawn) [Example 547]: the IC50 is under 10 µM.
As to `COC(=O)C(CNC(=O)CC1CC(c2ccc(C(=N)N)cc2)=NO1)NS(=O)(=O)c1sccc1Br` (stereo not drawn) [Example 548], the IC50 was under 10 µM.
Take `COC(=O)C(CNC(=O)CC1CC(c2ccc(C(=N)N)cc2)=NO1)NS(=O)(=O)c1ccc(Br)s1` (stereo not drawn) [Example 549]: the IC50 is under 10 µM.
On the same count and under the same terms, under `COC(=O)C(CNC(=O)CC1CC(c2ccc(C(=N)N)cc2)=NO1)NS(=O)(=O)c1ccc(-c2cc(C(F)(F)F)n(C)n2)s1` (stereo not drawn) [Example 550] stands under 10 µM; under `COC(=O)C(CNC(=O)CC1CC(c2ccc(C(=N)N)cc2)=NO1)NS(=O)(=O)c1ccc(-c2ccon2)s1` (stereo not drawn) [Example 551], under 10 µM; under `COC(=O)C(CNC(=O)CC1CC(c2ccc(C(=N)N)cc2)=NO1)NS(=O)(=O)c1ccc(-c2ccccn2)s1` (stereo not drawn) [Example 552], under 10 µM.
Consider `COC(=O)C(CNC(=O)CC1CC(c2ccc(C(=N)N)cc2)=NO1)NS(=O)(=O)c1sc(NC(C)=O)nc1C` (stereo not drawn) [Example 553], for which the concentration for half-maximal inhibition (IC50) is under 10 µM.
Take `COC(=O)C(CNC(=O)CC1CC(c2ccc(C(=N)N)cc2)=NO1)NS(=O)(=O)c1cc2ccccc2s1` (stereo not drawn) [Example 555]: the IC50 is under 10 µM.
As to `COC(=O)C(CNC(=O)CC1CC(c2ccc(C(=N)N)cc2)=NO1)NS(=O)(=O)c1sc2ccccc2c1C` (stereo not drawn) [Example 556], the concentration for half-maximal inhibition (IC50) was under 10 µM.
With `CCCCOC(=O)N[C@@H](CNC(=O)CC1CC(c2ccc(NC(=N)N)cc2)=NO1)C(=O)OC` (stereo partly drawn) [Example 602, Methyl N^2-n-butyloxycarbonyl-N^3-[3-(4-guanidinophenyl)isoxazolin-5-(R,S)-ylacetyl]-(S)-2,3-diaminopropionate, trifluoroacetic acid salt], the concentration for half-maximal inhibition (IC50) is under 10 µM.
For `COC(=O)CC(CNS(=O)(=O)N(C)C)NC(=O)CC1CC(c2ccc(C(=N)N)cc2)=NO1` (stereo not drawn) [Example 611], the IC50 is under 10 µM.
Still for that read-out and setting: under `COC(=O)CC(CN1CCCC1)NC(=O)CC1CC(c2ccc(C(=N)N)cc2)=NO1` (stereo not drawn) [Example 612] stands under 10 µM; under `CCCCOC(=O)NC(CNC(=O)CC1CC(c2ccc(C(=N)N)cc2F)=NO1)C(=O)OC` (stereo not drawn) [Example 613], under 10 µM.
Still for that read-out and setting: then `Cn1cnc(S(=O)(=O)NC(CNC(=O)CC2CC(c3ccc(C(=N)N)cc3)=NO2)C(=O)O)c1` (stereo not drawn) [Example 643], with under 10 µM; and `Cc1nc(C)c(S(=O)(=O)NC(CNC(=O)CC2CC(c3ccc(C(=N)N)cc3)=NO2)C(=O)O)s1` (stereo not drawn) [Example 644], with under 10 µM.
Regarding `COC(=O)[C@H](CN(C)C(=O)CC1CC(c2ccc(C(=N)N)cc2)=NO1)NC(=O)OCc1ccccc1` (stereo partly drawn) [Example 651, Methyl N^2-benzyloxycarbonyl-N^3-methyl-N^3-[3-(4-amidinophenyl)isoxazolin-5-(R,S)-ylacetyl]-(S)-2,3-diaminopropionate, trifluoroacetic acid salt], the IC50 is under 10 µM.
For `COC(=O)C(CNC(=O)Cc1cc(-c2ccc(C(=N)N)cc2)no1)NC(=O)OCc1ccccc1` (stereo not drawn) [Example 727], the IC50 is under 10 µM.
On the same count and under the same terms, then `CCCCOC(=O)NC(CNC(=O)Cc1cc(-c2ccc(C(=N)N)cc2)no1)C(=O)OC` (stereo not drawn) [Example 729], with under 10 µM; and `Cc1cccc(S(=O)(=O)NC(CNC(=O)Cc2cc(-c3ccc(C(=N)N)cc3)no2)C(=O)O)c1` (stereo not drawn) [Example 798], with under 10 µM; and `CCCCOC(=O)N[C@@H](CNC(=O)CC1=NOC(c2ccc(C(=N)N)cc2)C1)C(=O)OC` (stereo partly drawn) [Example 829, Methyl N^2-n-butyloxycarbonyl-N^3-[5-(4-amidinophenyl)isoxazolin-3-ylacetyl]-(2S)-2,3-diaminopropionate], with under 10 µM.
Regarding `N=C(N)NCCCC1CC(C(=O)NCC(NC(=O)OCc2ccccc2)C(=O)O)=NO1` (stereo not drawn) [Example 1284], the IC50 is under 10 µM.
Still for that read-out and setting: then `N=C(N)NCCCCC1CC(C(=O)NCC(NC(=O)OCc2ccccc2)C(=O)O)=NO1` (stereo not drawn) [Example 1321], with under 10 µM; and `N=C(N)NCCC1CC(C(=O)NCC(NC(=O)OCc2ccccc2)C(=O)O)=NO1` (stereo not drawn) [Example 1525], with under 10 µM; and `N=C(N)NCCCC1=NOC(CC(=O)NCC(NC(=O)OCc2ccccc2)C(=O)O)C1` (stereo not drawn) [Example 1694], with under 10 µM.
Same read-out and setting: under `N=C(N)NCCCCC1=NOC(CC(=O)NCC(NC(=O)OCc2ccccc2)C(=O)O)C1` (stereo not drawn) [Example 1731] stands under 10 µM.
The same measure, in the same setting: under `Cc1noc(C)c1S(=O)(=O)N[C@@H](CNC(=O)C[C@H]1CC(c2ccc(C(=N)N)cc2)=NO1)C(=O)O` [Example 2104] stands under 10 µM.
Take `N=C(N)NCCC1=NOC(CC(=O)NCC(NC(=O)OCc2ccccc2)C(=O)O)C1` (stereo not drawn) [Example 2109]: the IC50 was under 10 µM.
Regarding `N=C(N)NCCCCCC1=NOC(CC(=O)NCC(NC(=O)OCc2ccccc2)C(=O)O)C1` (stereo not drawn) [Example 2110], the IC50 was under 10 µM.
Same read-out and setting: under `COC(=O)C(CNC(=O)CC1CC(c2ccc(C(=N)NCc3ccccc3OC)cc2)=NO1)NS(=O)(=O)c1ccccc1C` (stereo not drawn) [Example 2111] stands under 10 µM; under `COc1ccccc1CNC(=N)c1ccc(C2=NOC(CC(=O)NCC(NS(=O)(=O)c3ccccc3C)C(=O)O)C2)cc1` (stereo not drawn) [Example 2112], under 10 µM; under `CCCCNC(=N)c1ccc(C2=NOC(CC(=O)NCC(NS(=O)(=O)c3ccccc3C)C(=O)OC)C2)cc1` (stereo not drawn) [Example 2113], under 10 µM.
As to `CCCCNC(=N)c1ccc(C2=NOC(CC(=O)NCC(NS(=O)(=O)c3ccccc3C)C(=O)O)C2)cc1` (stereo not drawn) [Example 2114], the IC50 was under 10 µM.
Still for that read-out and setting: then `CCNC(=N)c1ccc(C2=NOC(CC(=O)NCC(NS(=O)(=O)c3ccccc3C)C(=O)OC)C2)cc1` (stereo not drawn) [Example 2115], with under 10 µM; and `CCNC(=N)c1ccc(C2=NOC(CC(=O)NCC(NS(=O)(=O)c3ccccc3C)C(=O)O)C2)cc1` (stereo not drawn) [Example 2116], with under 10 µM.
Still for that read-out and setting: then `COC(=O)C(CNC(=O)CC1CC(c2ccc(C(=N)N)cc2)=NO1)NS(=O)(=O)c1ccc(S(=O)(=O)c2ccccc2)s1` (stereo not drawn) [Example 2118], with under 10 µM; and `N=C(N)c1ccc(C2=NOC(CC(=O)NCC(NS(=O)(=O)c3ccc(S(=O)(=O)c4ccccc4)s3)C(=O)O)C2)cc1` (stereo not drawn) [Example 2119], with under 10 µM; and `CC(C)(C)OC(=O)NC(=N)c1ccc(C2=NOC(CC(=O)NCC(NS(=O)(=O)c3ccc(S(=O)(=O)c4ccccc4)s3)C(=O)O)C2)cc1` (stereo not drawn) [Example 2120], with under 10 µM.
With `N=C(N)NCCC1CC(CCC(=O)NCC(NC(=O)OCc2ccccc2)C(=O)O)=NO1` (stereo not drawn) [Example 2280], the concentration for half-maximal inhibition (IC50) is under 10 µM.
On to `N=C(N)NCC1CC(CCC(=O)NCC(NC(=O)OCc2ccccc2)C(=O)O)=NO1` (stereo not drawn) [Example 2281], for which the IC50 was under 10 µM.
Still for that read-out and setting: then `N=C(N)NCCC1=NOC(CCC(=O)NCC(NC(=O)OCc2ccccc2)C(=O)O)C1` (stereo not drawn) [Example 2400], with under 10 µM.
Turning to `N=C(N)NCCCC1=NOC(C(=O)NCC(NC(=O)OCc2ccccc2)C(=O)O)C1` (stereo not drawn) [Example 2401], the concentration for half-maximal inhibition (IC50) was under 10 µM.
Still for that read-out and setting: then `N=C(N)NCCCCCC1=NOC(C(=O)NCC(NC(=O)OCc2ccccc2)C(=O)O)C1` (stereo not drawn) [Example 2402], with under 10 µM.
The same measure, in the same setting: under `N=C(N)NCCCC1=NOC(CCC(=O)NCC(NC(=O)OCc2ccccc2)C(=O)O)C1` (stereo not drawn) [Example 2403] stands under 10 µM; under `N=C(N)NCCCCC1=NOC(CCC(=O)NCC(NC(=O)OCc2ccccc2)C(=O)O)C1` (stereo not drawn) [Example 2404], under 10 µM.
Still for that read-out and setting: then `N=C(N)NCCC1=NOC(C(=O)NCC(NC(=O)OCc2ccccc2)C(=O)O)C1` (stereo not drawn) [Example 2405], with under 10 µM; and `N=C(N)NCCCCC1=NOC(C(=O)NCC(NC(=O)OCc2ccccc2)C(=O)O)C1` (stereo not drawn) [Example 2406], with under 10 µM.

Staying with this assay, now noted: Platelet, without esterase, read-out: Platelet Aggregation Assay IC50 (without esterase).
Consider `N=C(N)c1ccc(C2=NOC(CC(=O)NCC(NC(=O)OCCCC(F)(F)F)C(=O)O)C2)cc1` (stereo not drawn) [Example 538], for which the IC50 was under 10 µM.
On to `Cc1cccc(S(=O)(=O)N[C@@H](CNC(=O)CC2CC(c3ccc(C(=N)N)cc3)=NO2)C(=O)O)c1` (stereo partly drawn) [Example 587A, N^2-3-methylphenylsulfonyl-N^3-[3-(4-amidinophenyl)isoxazolin-5S-ylacetyl]-S-2,3-diaminopropionic acid], for which the IC50 is under 10 µM.
Same read-out and setting: then `CCCCOC(=O)NC(CNC(=O)CC1CC(CCCC2CCNCC2)=NO1)C(=O)OC` (stereo not drawn) [Example 616], with under 10 µM.

Still in this assay, the particulars now being: preincubated with 100 IU/mL porcine liver esterase 2 hours at 37° C., 100 μM ADP, read-out: Platelet Aggregation Assay IC50 (with esterase).
Take `CCCS(=O)(=O)NC(CNC(=O)CC1CC(c2ccc(C(=N)N)cc2)=NO1)C(=O)OC` (stereo not drawn) [Example 539]: the IC50 is under 10 µM.
